15 compounds from patent US20240057606A1, “MOLECULES HAVING CERTAIN PESTICIDAL UTILITIES, AND INTERMEDIATES, COMPOSITIONS, AND PROCESSES RELATED THERETO” (priority 2020, published 2024) can be followed below.

Holding throughout (assay type): in vivo
In series [1] the test system is Yellow Fever Mosquito (Aedes aegypti, "YFM"). Nature of the series: Bioassay on yellow fever mosquito larvae, 96-well plate assay. The following applies: 4000 ppm DMSO master solution diluted with 90:10 water:acetone; about 1 day-old larvae; room temperature; scored after 3 days. The procedure:
Bioassays On Yellow Fever Mosquito (Aedes aegypti, “YFM”)
Certain molecules disclosed in this document were tested against YFM using procedures described in the following paragraph. In the reporting of the results, the “YFM Rating Table” was used (See Table Section).
Master plates containing 400 μg of a molecule dissolved in 100 μL of dimethyl sulfoxide (DMSO) (equivalent to a 4000 ppm solution) are used. A master plate of assembled molecules contains 15 μL per well. To this plate, 135 μL of a 90:10 water:acetone mixture is added to each well. A robot (Biomek® NXP Laboratory Automation Workstation) is programmed to dispense 15 μL aspirations from the master plate into an empty 96-well shallow plate (“daughter” plate). There are 6 reps (“daughter” plates) created per master. The created daughter plates are then immediately infested with YFM larvae.
The day before plates are to be treated, mosquito eggs are placed in Millipore water containing liver powder to begin hatching (4 g. into 400 mL). After the daughter plates are created using the robot, they are infested with 220 μL of the liver powder/larval mosquito mixture (about 1 day-old larvae). After plates are infested with mosquito larvae, a non-evaporative lid is used to cover the plate to reduce drying. Plates are held at room temperature for 3 days prior to grading. After 3 days, each well is observed and scored based on mortality.

Series [2] concerns Beet Armyworm (Spodoptera exigua, "BAW"). The experiment in a line: Bioassay on beet armyworm, 128-well diet tray assay. The following applies: 168 h, 50 μg/cm^2 of test compound on artificial diet, second instar larvae, 25° C., five to seven days, average of eight wells, read-out: BAW % Control (or Mortality) rating. On the procedure:
(§1) Bioassays on Beet Armyworm (Spodoptera exigua, “BAW”) and Cabbage Looper (Trichoplusia ni, “CL”)
(§2) Certain molecules disclosed in this document were tested against BAW and CL using procedures described in the following examples. In the reporting of the results, the “BAW & CL Rating Table” was used (See Table Section).
Bioassays on BAW were conducted using a 128-well diet tray assay. one to five second instar BAW larvae were placed in each well (3 mL) of the diet tray that had been previously filled with 1 mL of artificial diet to which 50 μg/cm^2 of the test compound (dissolved in 50 μL of 90:10 acetone-water mixture) had been applied (to each of eight wells) and then allowed to dry. Trays were covered with a clear self-adhesive cover and held at 25° C., 14:10 light-dark cycle for five to seven days. Percent mortality was recorded for the larvae in each well; activity in the eight wells was then averaged. The results are indicated in the table entitled “Table ABC: Biological Results” (See Table Section).

Series [3] relates to Cabbage Looper (Trichoplusia ni, "CL"). Nature of the series: Bioassay on cabbage looper, 128-well diet tray assay. The following applies: 168 h, 50 μg/cm^2 of test compound on artificial diet, second instar larvae, 25° C., five to seven days, average of eight wells, read-out: CL % Control (or Mortality) rating. On the procedure:
as §1, §2
Bioassays on CL were conducted using a 128-well diet tray assay. one to five second instar CL larvae were placed in each well (3 mL) of the diet tray that had been previously filled with 1 mL of artificial diet to which 50 μg/cm^2 of the test compound (dissolved in 50 μL of 90:10 acetone-water mixture) had been applied (to each of eight wells) and then allowed to dry. Trays were covered with a clear self-adhesive cover and held at 25° C., 14:10 light-dark cycle for five to seven days. Percent mortality was recorded for the larvae in each well; activity in the eight wells was then averaged. The results are indicated in the table entitled “Table ABC: Biological Results” (See Table Section).

For `Cc1cc(-c2ncn(-c3ccc(OC(F)(F)C(F)(F)F)cc3)n2)ccc1NC(=O)/N=C1\SCC(=O)N1c1cccc2c1ccn2C` [F27, (Z)-1-(3-(1-Methyl-1H-indol-4-yl)-4-oxothiazolidin-2-ylidene)-3-(2-methyl-4-(1-(4-(perfluoroethoxy)phenyl)-1H-1,2,4-triazol-3-yl)phenyl)urea], in series [1], the “YFM % Control (or Mortality) rating” value is given as “A (80-100)”. Moreover, the mortality at 50 µg/cm2 in series [2] and in series [3] was 50 to 100% throughout.

`O=C(/N=C1\SCC(=O)N1c1cccc2c1COC2=O)Nc1ccc(-c2ncn(-c3ccc(OC(F)(F)F)cc3)n2)cc1F` [F19, (Z)-1-(2-Fluoro-4-(1-(4-(trifluoromethoxy)phenyl)-1H-1,2,4-triazol-3-yl)phenyl)-3-(4-oxo-3-(1-oxo-1,3-dihydroisobenzofuran-4-yl)thiazolidin-2-ylidene)urea]: in series [1], the “YFM % Control (or Mortality) rating” value is on record as “D (No activity noticed in this bioassay)”. For the same compound, the mortality at 50 µg/cm2 in series [2] was 50 to 100%; in series [3], 0%.

For `CN1CCOc2c1cccc2N1C(=O)CS/C1=N\C(=O)Nc1ccc(-c2ncn(-c3ccc(OC(F)(F)F)cc3)n2)cc1F` [F12, (Z)-1-(2-Fluoro-4-(1-(4-(trifluoromethoxy)phenyl)-1H-1,2,4-triazol-3-yl)phenyl)-3-(3-(4-methyl-3,4-dihydro-2H-benzo[b][1,4]oxazin-8-yl)-4-oxothiazolidin-2-ylidene)urea], the “YFM % Control (or Mortality) rating” value in series [1] was “A (80-100)”. Moreover, the mortality at 50 µg/cm2 in series [2] and in series [3] was 50 to 100% throughout.

As for `Cn1ccc2ccc(N3C(=O)CS/C3=N\C(=O)Nc3ccc(-c4ncn(-c5ccc(OC(F)(F)F)cc5)n4)cc3F)cc21` [F14, (Z)-1-(2-Fluoro-4-(1-(4-(trifluoromethoxy)phenyl)-1H-1,2,4-triazol-3-yl)phenyl)-3-(3-(1-methyl-1H-indol-6-yl)-4-oxothiazolidin-2-ylidene)urea], in series [1], the “YFM % Control (or Mortality) rating” value was “A (80-100)”. Also, the mortality at 50 µg/cm2 in series [2] and in series [3] was 50 to 100% in each case.

As for `Cc1cc(-c2ncn(-c3ccc(OC(F)(F)C(F)(F)F)cc3)n2)ccc1NC(=O)/N=C1\SCC(=O)N1c1ccc2ccccc2c1` [F29, (Z)-1-(2-Methyl-4-(1-(4-(perfluoroethoxy)phenyl)-1H-1,2,4-triazol-3-yl)phenyl)-3-(3-(naphthalen-2-yl)-4-oxothiazolidin-2-ylidene)urea], the “YFM % Control (or Mortality) rating” value in series [1] is on record as “D (No activity noticed in this bioassay)”. Further, the mortality at 50 µg/cm2 in series [2] and in series [3] was 50 to 100% throughout.

In the case of `Cn1ccc2c(N3C(=O)CS/C3=N\C(=O)Nc3ccc(-c4ncn(-c5ccc(OC(F)(F)F)cc5)n4)cc3F)cccc21` [F15, (Z)-1-(2-Fluoro-4-(1-(4-(trifluoromethoxy)phenyl)-1H-1,2,4-triazol-3-yl)phenyl)-3-(3-(1-methyl-1H-indol-4-yl)-4-oxothiazolidin-2-ylidene)urea], the “YFM % Control (or Mortality) rating” value in series [1] is given as “A (80-100)”. For the same compound, the mortality at 50 µg/cm2 in series [2] and in series [3] was 50 to 100% throughout.

On to `O=C(/N=C1\SCC(=O)N1c1ccc2ccccc2c1)Nc1ccc(-c2ncn(-c3ccc(OC(F)(F)F)cc3)n2)cc1F` [F13, (Z)-1-(2-Fluoro-4-(1-(4-(trifluoromethoxy)phenyl)-1H-1,2,4-triazol-3-yl)phenyl)-3-(3-(naphthalen-2-yl)-4-oxothiazolidin-2-ylidene)urea], for which the “YFM % Control (or Mortality) rating” value in series [1] is on record as “D (No activity noticed in this bioassay)”. The mortality at 50 µg/cm2 in series [2] and in series [3] was 50 to 100% throughout.

With `O=C(/N=C1\SCC(=O)N1c1cccc2ccccc12)Nc1ccc(-c2ncn(-c3ccc(OC(F)(F)F)cc3)n2)cc1F` [F16, (Z)-1-(2-Fluoro-4-(1-(4-(trifluoromethoxy)phenyl)-1H-1,2,4-triazol-3-yl)phenyl)-3-(3-(naphthalen-1-yl)-4-oxothiazolidin-2-ylidene)urea], the “YFM % Control (or Mortality) rating” value in series [1] is given as “A (80-100)”. Also, the mortality at 50 µg/cm2 in series [2] and in series [3] was 50 to 100% throughout.

As for `O=C(/N=C1\SCC(=O)N1c1cccc2ncccc12)Nc1ccc(-c2ncn(-c3ccc(C(F)(F)F)cc3)n2)cc1F` [F33, (Z)-1-(2-Fluoro-4-(1-(4-(trifluoromethyl)phenyl)-1H-1,2,4-triazol-3-yl)phenyl)-3-(4-oxo-3-(quinolin-5-yl)thiazolidin-2-ylidene)urea], the “YFM % Control (or Mortality) rating” value in series [1] is given as “A (80-100)”. The mortality at 50 µg/cm2 in series [2] and in series [3] was 50 to 100% each time.

Consider `Cc1cc(-c2ncn(-c3ccc(OC(F)(F)C(F)(F)F)cc3)n2)ccc1NC(=O)/N=C1\SCC(=O)N1c1cccc2ncccc12` [F32, (Z)-1-(2-Methyl-4-(1-(4-(perfluoroethoxy)phenyl)-1H-1,2,4-triazol-3-yl)phenyl)-3-(4-oxo-3-(quinolin-5-yl)thiazolidin-2-ylidene)urea], for which, in series [1], the “YFM % Control (or Mortality) rating” value is on record as “A (80-100)”. Besides, the mortality at 50 µg/cm2 in series [2] and in series [3] was 50 to 100% throughout.

As to `Cc1cc(-c2ncn(-c3ccc(OC(F)(F)C(F)(F)F)cc3)n2)ccc1NC(=O)/N=C1\SCC(=O)N1c1cccc2occc12` [F22, (Z)-1-(3-(Benzofuran-4-yl)-4-oxothiazolidin-2-ylidene)-3-(2-methyl-4-(1-(4-(perfluoroethoxy)phenyl)-1H-1,2,4-triazol-3-yl)phenyl)urea], the “YFM % Control (or Mortality) rating” value in series [1] is reported as “A (80-100)”. In addition, the mortality at 50 µg/cm2 in series [2] and in series [3] was 50 to 100% throughout.

Consider `O=C(/N=C1\SCC(=O)N1c1cccc2occc12)Nc1ccc(-c2ncn(-c3ccc(C(F)(F)C(F)(F)F)cc3)n2)cc1F` [F20, (Z)-1-(3-(Benzofuran-4-yl)-4-oxothiazolidin-2-ylidene)-3-(2-fluoro-4-(1-(4-(perfluoroethyl)phenyl)-1H-1,2,4-triazol-3-yl)phenyl)urea], for which, in series [1], the “YFM % Control (or Mortality) rating” value is reported as “D (No activity noticed in this bioassay)”. The mortality at 50 µg/cm2 in series [2] and in series [3] was 50 to 100% throughout.

As to `O=C(/N=C1\SCC(=O)N1c1cccc2ccoc12)Nc1ccc(-c2ncn(-c3ccc(C(F)(F)C(F)(F)F)cc3)n2)cc1F` [F21, (Z)-1-(3-(Benzofuran-7-yl)-4-oxothiazolidin-2-ylidene)-3-(2-fluoro-4-(1-(4-(perfluoroethyl)phenyl)-1H-1,2,4-triazol-3-yl)phenyl)urea], in series [1], the “YFM % Control (or Mortality) rating” value was “A (80-100)”. Also, the mortality at 50 µg/cm2 in series [2] and in series [3] was 50 to 100% each time.

As for `O=C(/N=C1\SCC(=O)N1c1cccc2c1CCOC2)Nc1ccc(-c2ncn(-c3ccc(OC(F)(F)F)cc3)n2)cc1F` [F18, (Z)-1-(2-Fluoro-4-(1-(4-(trifluoromethoxy)phenyl)-1H-1,2,4-triazol-3-yl)phenyl)-3-(3-(isochroman-5-yl)-4-oxothiazolidin-2-ylidene)urea], the “YFM % Control (or Mortality) rating” value in series [1] is “A (80-100)”. Moreover, the mortality at 50 µg/cm2 in series [2] and in series [3] was 50 to 100% each time.

For the compound `Cc1cc(-c2ncn(-c3ccc(OC(F)(F)C(F)(F)F)cc3)n2)ccc1NC(=O)/N=C1\SCC(=O)N1c1cccc2ccoc12` [F23, (Z)-1-(3-(Benzofuran-7-yl)-4-oxothiazolidin-2-ylidene)-3-(2-methyl-4-(1-(4-(perfluoroethoxy)phenyl)-1H-1,2,4-triazol-3-yl)phenyl)urea], in series [1], the “YFM % Control (or Mortality) rating” value is given as “A (80-100)”. Besides, the mortality at 50 µg/cm2 in series [2] and in series [3] was 50 to 100% throughout.
